# Reference: patent US6900019B1, “In-situ cell extraction and assay method” (Amersham Biosciences UK Limited, priority 1997, dated 2005)
# Values joined by “and” are separate entries in the source; they are usually repeats but may differ in a detail not shown here. Equal values may be shown once.
# Columns and labels:
# [1] = test system: binding protein prepared from bovine adrenal cortex; assay: Radioreceptor binding assay for D-myo-inositol 1,4,5-trisphosphate (IP3) with lysis reagent and sequestrant; conditions: 0.5% w/v DTAB in standards
# Method: Bovine adrenal glands were removed from animals and stored at −20° C. before preparing the binding protein. The cortex was dissected from the adrenal glands, homogenised in NaHCO3 (20 mM) with dithiothreitol (1 mM), and the homogenate centrifuged at 5000 g for 15 minutes. The supernatant was centrifuged at 35000 g for 20 minutes, the resulting pellet resuspended in the homogenisation buffer and centrifuged again at 35000 g for 20 minutes. The final pellet was resuspended in homogenisaton buffer at a protein concentration of between 20-40 mg/ml.
# For the assay, aliquots (100 μl) of the bovine adrenal cortex microsome preparation were incubated in 100 μl of 0.1M Tris buffer (pH9.0), containing 4 mM EDTA and 4 mg/ml bovine serum albumin. Incubations were carried out for 15 minutes in a final volume of 0.4 ml with [^3H] inositol 1,4,5-trisphosphate (100 μl; 6000 cpm) sample or standard (100 μl; 0.19-25 pmol inositol 1,4,5-trisphosphate/assay tube). Non-specific binding was determined in the presence of 1 nmol inositol 1,4,5-trisphosphate/tube. Incubations were terminated by centrifugation (12000 g) (10 minutes at 4° C.) and removal of the supernatant by gentle decantation. Particulate bound radioactivity was analysed, after suspension in 0.15M sodium hydroxide followed by neutralisation with 10% acetic acid, by liquid scintillation counting […]
# [2] = test system: rabbit anti-cAMP sera (antigen:antibody binding); assay: Scintillation proximity radioimmunoassay for cAMP: standard curves with lysis reagents and sequestrants
# Method: All assays were carried out in microtitre plates compatible with a microtitre plate beta scintillation counter. Standards (50 μl; 0.2-12.8 pmol/well), antisera (50 μl; at 1:11000 dilution), tracer (50 ul; 10000-20000 cpm) are added to anti-rabbit coated SPA beads (50 μl; 20 mg/ml). Non-specific binding was determined in the absence of specific rabbit antisera. SPA anti-rabbit reagent is placed onto a magnetic stirrer to ensure a homogeneous suspension before pipetting. All wells contained a total volume of 200 μl. The plates were sealed and incubated at room temperature (15-30° C.) for 15-20 hours. The amount of [^125I]cAMP bound to the SPA fluomicrospheres was determined by counting in a microtitre plate beta scintillation counter for 2 minutes.
# Experiments were set up with:— • a) Working standards (4-256 pmol/ml; 0.2-12.8 pmol/well) were prepared in assay buffer (0.05M sodium acetate buffer containing 0.01% sodium azide) only (control) or assay buffer containing lysis reagent (e.g. DTAB, CPC or SDS; see experiment 1) at various concentrations. • b) Rabbit anti-cAMP sera prepared in assay buffer only (control) or assay buffer containing sequestrating agent at various concentrations depending on the experiment. • c) Radioactive tracer: adenosine 3′ 5′-cyclic phosphoric acid 2′-O-succinyl-3-[^125I] iodotyrosine methyl ester prepared in assay buffer only (control) or assay buffer containing sequestrating agent at various concentrations depending on the experiment. • d) Donkey anti-rabbit IgG coupled to scintillation proximity fluomicrospheres prepared in assay buffer only (control) or assay buffer containing sequestrating agent at various concentrations depending on the experiment. Experiment 1: Inhibition of Antigen and Antibody Binding by Several Lysis Reagents Method
# In these experiments, standard curves were prepared for cAMP using the SPA immunoassay technique, described above, where working standards of cAMP were prepared in several lysis reagents at 1% (w/v) or 2% (w/v) final concentration. The detergents investigated included dodecyl trimethyl ammonium bromide (DTAB; Sigma Chemical Co. D8638), benzethonium chloride (BZC; Aldrich; B470-8), cetyl pyridinium chloride (CPC; Sigma Chemical Co; C9002), sodium dodecyl sulphate (SDS, Sigma chemical Co; L4509) and N-dodecyl-N,N-dimethyl-3-ammonio-1-propanesulphonate (DDAPS; Sigma Chemical Co.; D4516).
# In these experiments, standard curves for cAMP were prepared using the SPA immunoassay technique described above, where working standards of cAMP were prepared in 1% (w/v), 1.5% (w/v) or 2% (w/v) lysis reagents (DTAB, SDS or CPC). The control consisted of no lysis reagent or cyclodextrin added. The effect including 2.5% (w/v) alpha-cyclodextrin (alpha-CD) (Sigma Chemical Co.; C4642) on antigen:antibody binding was investigated. Here, tracer, antisera and SPA beads were prepared in assay buffer containing 2.5% (w/v) alpha-CD. A second control tested the effect of 2.5% (w/v) alpha-CD on the standard curve without addition of lysis reagent.
# In this experiment, standard curves for cAMP were prepared using the SPA radioimmunoassay where working standards of cAMP were prepared in 1% (w/v) DTAB. The effect of including 1% (w/v), 2% (w/v), 2.5% (w/v) and 5% (w/v) alpha-cyclodextrin on antigen:antibody binding was investigated. Here, tracer, antisera and SPA beads were prepared in assay buffer containing alpha-CD at the above concentrations. The control consisted of no lysis or cyclodextrin added to the assay.
# In this experiment, standard curves for cAMP were prepared using the SPA immunoassay technique where working standards were prepared 1% (wt) lysis reagent (DTAB). The effect of including 2.5% (w/v) alpha-cyclodextrin (CD) 2.5% (w/v) beta-cyclodextrin (beta-CD) (Sigma is Chemical Co.; C4767) and 2.5% (w/v) gamma-cyclodextrin (gamma-CD) (Sigma Chemical Co.; 4892) on antigen:antibody binding was investigated. […]
smiles,measurement,setting,value
"OC[C@H]1O[C@@H]2O[C@H]3[C@H](O)[C@@H](O)[C@@H](O[C@H]4[C@H](O)[C@@H](O)[C@@H](O[C@H]5[C@H](O)[C@@H](O)[C@@H](O[C@H]6[C@H](O)[C@@H](O)[C@@H](O[C@H]7[C@H](O)[C@@H](O)[C@@H](O[C@H]1[C@H](O)[C@H]2O)O[C@@H]7CO)O[C@@H]6CO)O[C@@H]5CO)O[C@@H]4CO)O[C@@H]3CO [CD, alpha-cyclodextrin]",binding of [3H]IP3 to the receptor preparation,[1]; alpha-cyclodextrin 2% final w/v in tracer and adrenal cortex preparation,Binding was restored
same,restoration of antigen:antibody binding,"[2]; 1% (w/v) and 2% (w/v) alpha-CD, standards in 1% DTAB",restored binding to a limited degree
same,restoration of antigen:antibody binding,"[2]; 2.5% (w/v) alpha-CD, standards in 1% DTAB",optimal results
same,restoration of antigen:antibody binding by different sequestrants,"[2]; 2.5% (w/v) sequestrant, standards in 1% DTAB",restored binding to an optimal degree
same,effect on the cAMP standard curve,"[2]; 2.5% alpha-CD only, no lysis reagent",little impact
same,"[125I]cAMP bound to SPA beads, counts per minute","[2]; 2.5% alpha-cyclodextrin only, no lysis reagent, 0.2 pmol cAMP/well",2790 cpm
same,"[125I]cAMP bound to SPA beads, counts per minute","[2]; 2.5% alpha-cyclodextrin only, no lysis reagent, 0.2 pmol cAMP/well, listed as cyclodextrin",2358 cpm
same,"[125I]cAMP bound to SPA beads, counts per minute","[2]; 2.5% alpha-cyclodextrin only, no lysis reagent, 0.4 pmol cAMP/well",2485 cpm
same,"[125I]cAMP bound to SPA beads, counts per minute","[2]; 2.5% alpha-cyclodextrin only, no lysis reagent, 0.4 pmol cAMP/well, listed as cyclodextrin",1979 cpm
same,"[125I]cAMP bound to SPA beads, counts per minute","[2]; 2.5% alpha-cyclodextrin only, no lysis reagent, 0.8 pmol cAMP/well",1979 cpm
same,"[125I]cAMP bound to SPA beads, counts per minute","[2]; 2.5% alpha-cyclodextrin only, no lysis reagent, 0.8 pmol cAMP/well, listed as cyclodextrin",1682 cpm
same,"[125I]cAMP bound to SPA beads, counts per minute","[2]; 2.5% alpha-cyclodextrin only, no lysis reagent, 1.6 pmol cAMP/well",1503 cpm
same,"[125I]cAMP bound to SPA beads, counts per minute","[2]; 2.5% alpha-cyclodextrin only, no lysis reagent, 1.6 pmol cAMP/well, listed as cyclodextrin",1499 cpm
same,"[125I]cAMP bound to SPA beads, counts per minute","[2]; 2.5% alpha-cyclodextrin only, no lysis reagent, 3.2 pmol cAMP/well",1058 cpm
same,"[125I]cAMP bound to SPA beads, counts per minute","[2]; 2.5% alpha-cyclodextrin only, no lysis reagent, 3.2 pmol cAMP/well, listed as cyclodextrin",1143 cpm
same,"[125I]cAMP bound to SPA beads, counts per minute","[2]; 2.5% alpha-cyclodextrin only, no lysis reagent, 6.4 pmol cAMP/well",674 cpm
same,"[125I]cAMP bound to SPA beads, counts per minute","[2]; 2.5% alpha-cyclodextrin only, no lysis reagent, 6.4 pmol cAMP/well, listed as cyclodextrin",754 cpm
same,"[125I]cAMP bound to SPA beads, counts per minute","[2]; 2.5% alpha-cyclodextrin only, no lysis reagent, 12.8 pmol cAMP/well",415 cpm
same,"[125I]cAMP bound to SPA beads, counts per minute","[2]; 2.5% alpha-cyclodextrin only, no lysis reagent, 12.8 pmol cAMP/well, listed as cyclodextrin",383 cpm
same,"[125I]cAMP bound to SPA beads, counts per minute","[2]; 2.5% alpha-cyclodextrin only, no lysis reagent, NSB (no specific antisera)",155 cpm
same,"[125I]cAMP bound to SPA beads, counts per minute","[2]; 2.5% alpha-cyclodextrin only, no lysis reagent, NSB (no specific antisera), listed as cyclodextrin",199 cpm
same,"[125I]cAMP bound to SPA beads, counts per minute","[2]; 2.5% alpha-cyclodextrin only, no lysis reagent, Zero standard",3300 cpm
same,"[125I]cAMP bound to SPA beads, counts per minute","[2]; 2.5% alpha-cyclodextrin only, no lysis reagent, Zero standard, listed as cyclodextrin",3145 cpm
same,restoration of antigen:antibody binding,"[2]; 5% (w/v) alpha-CD, standards in 1% DTAB",inhibitory
"CCCCCCCCCCCC[N+](C)(C)C.[Br-] [DTAB, dodecyl trimethyl ammonium bromide]",binding of [3H]IP3 to the receptor preparation,[1]; no sequestrant,total inhibition of binding
same,"[125I]cAMP bound to SPA beads, counts per minute","[2]; 1% lysis reagent, no sequestrant, 0.2 pmol cAMP/well",1118 cpm and 1575 cpm
same,"[125I]cAMP bound to SPA beads, counts per minute","[2]; 1% lysis reagent, no sequestrant, 0.4 pmol cAMP/well",1098 cpm and 1573 cpm
same,"[125I]cAMP bound to SPA beads, counts per minute","[2]; 1% lysis reagent, no sequestrant, 0.8 pmol cAMP/well",1088 cpm and 1305 cpm
same,"[125I]cAMP bound to SPA beads, counts per minute","[2]; 1% lysis reagent, no sequestrant, 1.6 pmol cAMP/well",977 cpm and 1097 cpm
same,"[125I]cAMP bound to SPA beads, counts per minute","[2]; 1% lysis reagent, no sequestrant, 3.2 pmol cAMP/well",860 cpm and 813 cpm
same,"[125I]cAMP bound to SPA beads, counts per minute","[2]; 1% lysis reagent, no sequestrant, 6.4 pmol cAMP/well",649 cpm and 619 cpm
same,"[125I]cAMP bound to SPA beads, counts per minute","[2]; 1% lysis reagent, no sequestrant, 12.8 pmol cAMP/well",440 cpm and 439 cpm
same,"[125I]cAMP bound to SPA beads, counts per minute","[2]; 1% lysis reagent, no sequestrant, NSB (no specific antisera)",130 cpm and 182 cpm
same,"[125I]cAMP bound to SPA beads, counts per minute","[2]; 1% lysis reagent, no sequestrant, Zero standard",1429 cpm and 1586 cpm
same,"[125I]cAMP bound to SPA beads, counts per minute","[2]; 1.5% lysis reagent only, 0.2 pmol cAMP/well",799 cpm
same,"[125I]cAMP bound to SPA beads, counts per minute","[2]; 1.5% lysis reagent only, 0.4 pmol cAMP/well",713 cpm
same,"[125I]cAMP bound to SPA beads, counts per minute","[2]; 1.5% lysis reagent only, 0.8 pmol cAMP/well",688 cpm
same,"[125I]cAMP bound to SPA beads, counts per minute","[2]; 1.5% lysis reagent only, 1.6 pmol cAMP/well",513 cpm
same,"[125I]cAMP bound to SPA beads, counts per minute","[2]; 1.5% lysis reagent only, 3.2 pmol cAMP/well",426 cpm
same,"[125I]cAMP bound to SPA beads, counts per minute","[2]; 1.5% lysis reagent only, 6.4 pmol cAMP/well",376 cpm
same,"[125I]cAMP bound to SPA beads, counts per minute","[2]; 1.5% lysis reagent only, 12.8 pmol cAMP/well",264 cpm
same,"[125I]cAMP bound to SPA beads, counts per minute","[2]; 1.5% lysis reagent only, NSB (no specific antisera)",237 cpm
same,"[125I]cAMP bound to SPA beads, counts per minute","[2]; 1.5% lysis reagent only, Zero standard",819 cpm
same,"[125I]cAMP bound to SPA beads, counts per minute","[2]; 2% lysis reagent, no sequestrant, 0.2 pmol cAMP/well",231 cpm and 198 cpm
same,"[125I]cAMP bound to SPA beads, counts per minute","[2]; 2% lysis reagent, no sequestrant, 0.4 pmol cAMP/well",231 cpm and 216 cpm
same,"[125I]cAMP bound to SPA beads, counts per minute","[2]; 2% lysis reagent, no sequestrant, 0.8 pmol cAMP/well",201 cpm
same,"[125I]cAMP bound to SPA beads, counts per minute","[2]; 2% lysis reagent, no sequestrant, 1.6 pmol cAMP/well",195 cpm and 179 cpm
same,"[125I]cAMP bound to SPA beads, counts per minute","[2]; 2% lysis reagent, no sequestrant, 3.2 pmol cAMP/well",179 cpm and 176 cpm
same,"[125I]cAMP bound to SPA beads, counts per minute","[2]; 2% lysis reagent, no sequestrant, 6.4 pmol cAMP/well",170 cpm and 144 cpm
same,"[125I]cAMP bound to SPA beads, counts per minute","[2]; 2% lysis reagent, no sequestrant, 12.8 pmol cAMP/well",93 cpm and 78 cpm
same,"[125I]cAMP bound to SPA beads, counts per minute","[2]; 2% lysis reagent, no sequestrant, NSB (no specific antisera)",145 cpm and 138 cpm
same,"[125I]cAMP bound to SPA beads, counts per minute","[2]; 2% lysis reagent, no sequestrant, Zero standard",272 cpm and 217 cpm
